According to PubChem BioAssay (NCI):
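Compound exposure: 48 hours, 5 concentrations, 96-well plates. GI50 is the concentration that inhibits growth by half. TGI marks complete inhibition of growth.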

Key:
Assay in all cases: NCI-60 cell line screen, 48 h
A498 renal = test system: A498 renal
COLO 205 colon = test system: COLO 205 colon
HCT-116 colon = test system: HCT-116 colon
M14 melanoma = test system: M14 melanoma
MOLT-4 leukemia = test system: MOLT-4 leukemia
NCI/ADR-RES ovarian = test system: NCI/ADR-RES ovarian
OVCAR-5 ovarian = test system: OVCAR-5 ovarian
SK-MEL-28 melanoma = test system: SK-MEL-28 melanoma
T-47D breast = test system: T-47D breast
SF-539 CNS = test system: SF-539 CNS

SMILES	TGI (A498 renal) [µM]	TGI (COLO 205 colon) [µM]	TGI (HCT-116 colon) [µM]	TGI (M14 melanoma) [µM]	TGI (MOLT-4 leukemia) [µM]	TGI (NCI/ADR-RES ovarian) [µM]	TGI (OVCAR-5 ovarian) [µM]	TGI (SK-MEL-28 melanoma) [µM]	TGI (T-47D breast) [µM]	TGI (SF-539 CNS) [µM]	GI50 (A498 renal) [µM]	GI50 (OVCAR-5 ovarian) [µM]
N/C1=C/C(=O)NC(=O)c2c(c3ccccc3oc2=O)C1	> 100	> 100	> 100	> 100	> 100	> 100	> 100	> 100	> 100	–	–	–
O=C1CSC(c2ccc(Cl)cc2Cl)N1c1ccc(Oc2ccc(Cl)cc2)c(Cl)c1 (centres undefined)	–	61	36.2	> 100	81.5	55.1	> 100	> 100	90.1	86.7	–	–
NC(=O)CC(N=Cc1nc(-c2ccccc2)oc1O)C(=O)O (centres undefined)	> 100	> 100	> 100	> 100	–	–	> 100	> 100	–	> 100	–	–
NC(=S)N1N=C2c3ccccc3CC[C@H]2[C@@H]1c1ccc(Cl)cc1	> 100	34.8	37.3	> 100	89.8	–	> 100	> 100	–	> 100	–	–
CC(C)=CC[C@]12CCN(C)[C@H]1N(S(=O)(=O)c1ccccc1)c1ccccc12	> 100	–	> 100	–	> 100	> 100	> 100	> 100	> 76	> 100	–	–
O=c1[nH]c(=O)n(COCc2ccccc2)cc1Nc1ccc(Br)cc1	> 100	> 100	> 100	> 100	> 100	> 100	> 100	> 100	–	–	–	–
CCCCOC(=O)C1CC[C@H]2[C@@H]3CCc4cc(OC(=O)c5cccc6c(=O)c7ccccc7[nH]c56)ccc4[C@H]3CC[C@]12C (some centres undefined)	16.7	13.8	17.1	20.5	21.7	24.3	19.8	21.2	14.1	–	–	–
c1ccc2c(c1)cc1n2CCc2c-1[nH]c1ccccc21	–	> 10	> 10	> 10	> 10	> 10	> 10	> 10	> 10	> 10	–	–
COc1cc(-c2c3c(cc4c2OCO4)[C@@H](Nc2ccc(-c4ccc(-c5ccc(N[C@@H]6c7cc8c(cc7C(c7cc(OC)c(O)c(OC)c7)[C@H]7C(=O)OC[C@H]67)OCO8)cc5)cc4)cc2)[C@H]2COC(=O)[C@@H]2C3)cc(OC)c1O (some centres undefined)	21.4	3.34	3.19	4.11	–	5.92	17	15.7	65.2	–	–	–
CC(C)C1=CC(=O)[C@@](C)(C2[C@H](O)C[C@@]3(C)[C@@H]4CC=C5[C@@H](CC[C@@H](OC6OCC(O)C(O)C6OC6OC(C)C(O)C(O)C6O)C5(C)C)[C@]4(C)C(=O)C[C@]23C)O1 (some centres undefined)	> 100	> 100	> 100	> 100	> 100	> 100	> 100	> 100	> 100	–	–	–
C[C@]12CC(c3ccccc3O1)C(C(=O)Nc1nc(C34CC5CC(CC(C5)C3)C4)cs1)C(=O)N2 (some centres undefined)	> 100	> 100	> 100	> 100	> 100	> 100	> 100	> 100	> 100	–	–	–
O=C(O)/C=C/c1c[nH]c(=O)[nH]c1=O	> 500	> 500	> 500	–	> 281	> 472	> 500	> 500	–	> 500	> 500	> 500
O=C1C(c2c(O)[nH]c3ccc(Br)cc23)=Nc2ccc(Br)cc21	> 100	> 100	34.6	> 100	> 100	> 100	> 100	> 100	> 100	–	–	–
C#CCN(Cc1ccc2nc(-c3ccccc3)c(N)nc2c1)c1cc(OC)c(OC)c(OC)c1	–	42.8	57.7	93.7	35.7	–	> 100	> 100	–	> 100	–	–
CCn1c(CCl)nc2c1C(=O)c1ccccc1C2=O	–	–	4.32	3.22	–	6.5	3.25	3.19	4.21	4.89	–	–
Nc1nc(Cl)c(Cl)c(NCC2(O)CCC2)n1	97	–	> 100	–	> 100	> 100	> 100	> 100	64.2	> 100	–	–

SMILES	TGI (A498 renal) [µM]	TGI (COLO 205 colon) [µM]	TGI (HCT-116 colon) [µM]	TGI (M14 melanoma) [µM]	TGI (MOLT-4 leukemia) [µM]	TGI (NCI/ADR-RES ovarian) [µM]	TGI (OVCAR-5 ovarian) [µM]	TGI (SK-MEL-28 melanoma) [µM]	TGI (T-47D breast) [µM]	TGI (SF-539 CNS) [µM]	GI50 (A498 renal) [µM]	GI50 (OVCAR-5 ovarian) [µM]
[N-]=[N+]=CC(=O)OCCCCl	> 100	> 100	> 100	–	> 100	–	> 100	> 100	–	–	–	–
C[C@H](CCC1SC1(C)C)C1CCC2(C)C3=C(CC[C@]12C)[C@@]1(C)CC[C@H](O)C(C)(C)C1CC3 (some centres undefined)	> 100	> 100	> 100	> 100	> 100	–	> 100	> 100	–	–	–	–
COc1cc2c(cc1OC)C(=O)/C(=C/c1cc(C)cc(C)c1)C2	48	0.346	11.6	> 100	> 90.3	> 38	> 86.4	> 100	45.6	–	–	–
CCC(C)C1=C(O)[N+]2([O-])Oc3ccc(-c4c(O)c(O)c(-c5ccc(OC(C)=O)cc5)c(OC(C)=O)c4OC(C)=O)cc3OC2(C(C)CC)C(=O)N1O (centres undefined)	> 50	> 50	–	> 50	> 50	> 50	> 50	> 50	> 50	> 50	–	–
O=C1CN(c2cccc(Cl)c2)C(=O)CN1NCNN1CC(=O)N(c2cccc(Cl)c2)CC1=O	> 100	> 100	> 100	> 100	> 100	–	> 100	> 100	–	> 100	–	–
CCOC(=O)C1(C#N)CC1	–	> 100	> 100	> 100	> 100	> 100	> 100	> 100	> 100	> 100	–	–
COc1cc2c(/C=C3/C(=O)N(C)c4ccc(O)cc43)c(Cl)[nH]c2cc1C	5.39	2.37	–	13.1	0.784	5.59	21.6	15.4	5.93	0.722	–	–
CC(=O)OC1[C@H](OC(C)=O)C2=C(C)[C@@H](OC(C)=O)C[C@@]2(C(C)(C)O)[C@@H](OC(C)=O)[C@H]2[C@@]1(C)[C@@H](OC(C)=O)CC(OC(C)=O)[C@]21CO1 (some centres undefined)	–	> 100	> 100	> 100	> 100	–	> 100	> 100	> 100	> 100	–	–
CN(CCNC(=O)c1c[nH]c2c1Cc1ccccc1-2)CCNC(=O)c1c[nH]c2c1Cc1ccccc1-2	–	> 100	> 100	84.6	63.7	> 100	> 100	> 100	–	49.2	–	–
CC1OC2OC3C(OCC(O)C3O)OC(=O)[C@]34CCC(C)(C)CC3C3=CCC5[C@@]6(C)C[C@H](O)[C@H](OC7OC(CO)C(O)C(O)C7OC7OCC(OC(=O)CC(C)(O)CC(=O)OC1C(O)C2O)C(O)C7O)[C@@](C)(CO)C6CC[C@@]5(C)[C@]3(C)CC4 (some centres undefined)	–	4.39	17.4	8.87	23.1	28.3	7	4.97	17.6	26	–	–
COc1cc(C(C)O)c[n+](CCC2CNc3ccccc32)c1 (centres undefined)	> 100	> 100	> 100	> 100	> 100	–	–	–	–	> 100	–	–
Clc1ccc(C[P+](c2ccccc2)(c2ccccc2)c2ccccc2)cc1Cl	27	2.95	10.8	12.5	–	–	19.2	11.4	–	14.5	–	–
CN(CCc1ccccn1)C(=S)N/N=C(\c1ccccc1)c1ccccn1	0.942	17.3	2.02	8.43	7.26	–	7.88	6.01	4.82	–	–	–
C[C@@H]1CC(=O)C[C@@H]2CC[C@H]3[C@@H]4CC[C@H](OC(=O)c5cccc6cc7ccccc7nc56)[C@H]4CC[C@@H]3[C@H]21	–	53.8	27.1	31.6	31.7	55.1	34.9	93.3	37.5	38.6	–	–
C=C1C(=O)O[C@H]2C[C@@H]1[C@@H](O)[C@H](O)[C@@H](C)CCCC(C)=CCC[C@@]2(C)O	> 100	28.2	51.8	29.8	54.6	–	51.3	77.7	57.1	30.1	–	–
CC1(C)OC2OC(C(COS(=O)(=O)C(F)(F)F)N=[N+]=[N-])C(OC(=O)c3ccccc3)C2O1 (centres undefined)	> 100	> 100	> 100	> 100	> 100	> 100	> 100	> 100	–	> 100	–	–
